Values of other authors as cited in patent US20050158380A1, “Sustained release oral dosage forms of gabapentin” (priority 2002, published 2005).

Settings: in vivo

NCC1(CC(=O)O)CCCCC1 [Gabapentin, 1-(aminomethyl)cyclohexaneacetic acid]
half-life: 5 to 7 h
